According to patent US20080096897A1, “5-(1,1'Biphenyl)-4-Yl-5-(4-(4-Aminoacylphenyl)-Piperazin)-1-Yl-Pyrimidine-2,4,6,-Trione Derivatives, As Inhibitors Of Zinc Metallondopeptidases, Their Preparation And Use” (priority 2004, published 2008):
Like-named read-outs stand apart in the source and are kept apart here.

What was measured:
[1] = target: recombinant human MMP14 (Homo sapiens, UniProt P50281); assay: MMP inhibition on isolated enzymes, fluorigenic peptide substrate; type: biochemical
Description: (§1) The matrix metalloproteinase (MMP) inhibitory activity has been evaluated in a classical biochemical assay using fluorigenic peptide substrates. Briefly, a peptide bearing 1) a fluorescent group and 2) a quenching group bound to another amino acid of the peptide is submitted to the proteolytic action of an MMP. The cleavage of peptide bounds due to the MMP results in a dequenching of the fluorescent group. There is a direct relationship between the observed fluorescence and the activity of the enzyme. The MMP inhibiting activity of a given substance can then be assessed using this assay.
(§2) The compounds of the present invention have been assayed using this assay design with recombinant human MMP2, MMP14 and MMP16 and the peptide ZGly-Gly-ArgAMC, which is a well-known, commercially available substrate of MMPs.
(§3) The following IC50 values (inhibitor concentration required to inhibit 50% of the enzyme) have been obtained with the compounds prepared according to examples 2 to 5 and compared to a product of the state of the art, better known as Ro 28-2653. Ro 28-2653 is included in claim 1 of WO 01/25217.

[2] = target: recombinant human MMP16 (Homo sapiens, UniProt P51512); assay: as above; type: biochemical
Chain of recombinant human MMP16 (P51512 120-607): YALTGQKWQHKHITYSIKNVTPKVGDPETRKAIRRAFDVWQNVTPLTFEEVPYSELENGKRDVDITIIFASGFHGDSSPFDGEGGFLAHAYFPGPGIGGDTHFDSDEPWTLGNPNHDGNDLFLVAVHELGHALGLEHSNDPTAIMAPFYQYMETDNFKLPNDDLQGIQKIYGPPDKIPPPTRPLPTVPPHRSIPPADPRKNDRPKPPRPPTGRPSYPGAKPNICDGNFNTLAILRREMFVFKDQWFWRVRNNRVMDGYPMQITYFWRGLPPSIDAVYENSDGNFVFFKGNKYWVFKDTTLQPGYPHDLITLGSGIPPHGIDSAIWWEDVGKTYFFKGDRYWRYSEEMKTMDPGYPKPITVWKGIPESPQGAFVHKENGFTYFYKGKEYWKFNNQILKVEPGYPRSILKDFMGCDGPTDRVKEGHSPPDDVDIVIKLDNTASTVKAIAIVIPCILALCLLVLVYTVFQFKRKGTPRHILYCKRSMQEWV
Description: as §1, §2, §3

[3] = target: T1, recombinant human MMP2 (Homo sapiens, UniProt P08253); assay: as above; type: biochemical
T1 sequence (P08253 110-660): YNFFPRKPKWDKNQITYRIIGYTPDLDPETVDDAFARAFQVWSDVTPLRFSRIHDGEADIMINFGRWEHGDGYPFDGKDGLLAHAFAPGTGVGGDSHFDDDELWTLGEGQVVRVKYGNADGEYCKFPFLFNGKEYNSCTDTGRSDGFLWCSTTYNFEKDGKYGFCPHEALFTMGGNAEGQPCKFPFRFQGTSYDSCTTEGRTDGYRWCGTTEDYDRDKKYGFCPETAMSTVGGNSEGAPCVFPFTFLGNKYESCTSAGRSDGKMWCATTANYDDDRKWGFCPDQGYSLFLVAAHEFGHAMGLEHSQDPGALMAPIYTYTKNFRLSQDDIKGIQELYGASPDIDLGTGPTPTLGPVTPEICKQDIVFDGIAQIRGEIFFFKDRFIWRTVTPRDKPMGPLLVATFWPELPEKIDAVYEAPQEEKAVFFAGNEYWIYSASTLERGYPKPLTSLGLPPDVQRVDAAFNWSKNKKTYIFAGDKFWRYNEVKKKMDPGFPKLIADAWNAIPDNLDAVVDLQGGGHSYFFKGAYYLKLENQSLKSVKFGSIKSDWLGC
Description: as §1, §2, §3

[4] = test system: capillary vessel outgrowth from aorta rings; assay: aorta ring angiogenesis assay; type: cell-based; conditions: 10 μM in culture medium, rat aorta rings in collagen, 6-9 days
Description: Compound 5-(1,1′-biphenyl)-4-yl-5-{4-[4-(2,5-dioxopyrrolidin-1-yl)phenyl]piperazin-1-yl}pyrimidine-2,4,6(1H,3H,5H)-trione prepared according to example 4 has also been assayed in an aorta ring angiogenesis assay.
Briefly, in the aorta ring assay, fresh slices (ring) of aorta dissected from rat were embedded in collagen1 and then cultivated in Petri dishes after addition of culture medium (n=6). […] The effect of the compound of example 4 (10 μM) on angiogenesis was evaluated by its potency to stimulate or to inhibit the outgrowth of the capillary vessels when it was added to the culture medium (n=6).

SMILES | IC50 [1] [nM] | IC50 [2] [nM] | IC50 [3] [nM] | effect on capillary vessel outgrowth (angiogenesis) [4] | IC50 ([1]; recombinant human MMP14, substrate ZGly-Gly-ArgAMC, read-out: IC50 (nM) values on isolated enzymes MMP-14) [nM] | IC50 ([2]; recombinant human MMP16, substrate ZGly-Gly-ArgAMC, read-out: IC50 (nM) values on isolated enzymes MMP-16) [nM] | IC50 ([3]; recombinant human MMP2, substrate ZGly-Gly-ArgAMC, read-out: IC50 (nM) values on isolated enzymes MMP-2) [nM]
O=C1NC(=O)C(c2ccc(-c3ccccc3)cc2)(N2CCN(c3ccc([N+](=O)[O-])cc3)CC2)C(=O)N1 [Ro 28-2653, reference compound] | 96 | 91 | 246 | – | – | – | –
O=C(O)CCC(=O)Nc1ccc(N2CCN(C3(c4ccc(-c5ccccc5)cc4)C(=O)NC(=O)NC3=O)CC2)cc1 [example 2, N-{4-[4-(5-(1,1′-Biphenyl)-4-yl-2,4,6-trioxoperhydropyrimidin-5-yl)piperazin-1-yl]-phenyl}succinamic acid] | 29 | 39 | 110 | – | – | – | –
O=C(O)CCCC(=O)Nc1ccc(N2CCN(C3(c4ccc(-c5ccccc5)cc4)C(=O)NC(=O)NC3=O)CC2)cc1 [example 3, 4-{4-[4-(5-(1,1′-Biphenyl)-4-yl-2,4,6-trioxoperhydropyrimidin-5-yl)piperazin-1-yl]-phenylcarbamoyl}butyric acid] | 26 | 49 | 98 | – | – | – | –
O=C1NC(=O)C(c2ccc(-c3ccccc3)cc2)(N2CCN(c3ccc(N4C(=O)CCC4=O)cc3)CC2)C(=O)N1 [example 4, 5-(1,1′-Biphenyl)-4-yl-5-{4-[4-(2,5-dioxopyrrolidin-1-yl)phenyl]piperazin-1-yl}pyrimidine-2,4,6(1H,3H,5H)-trione] | 13 | 21 | 75 | severely inhibit the capillary vessel outgrowth | – | – | –
O=C1CCC(=O)N(c2ccc(N3CCN(C4(c5ccc(-c6ccccc6)cc5)C(=O)NC(=O)NC4=O)CC3)cc2)C1 [example 5, 5-(1,1′-Biphenyl)-4-yl-5-{4-[4-(2,5-dioxopiperidin-1-yl)phenyl]piperazin-1-yl}pyrimidine-2,4,6(1H,3H,5H)-trione] | – | – | – | – | 23 | 20 | 93
